Laboratory results from patent publication EP0472181B1, “5-Amine substituted adenosine analogs as immunosuppressants” (MERRELL PHARMACEUTICALS INC., priority 1990, dated 1992).

Experiments:
[1] = test system: Cloned IL-2 dependent cytolytic T lymphocytes (CTLL-20); assay: Inhibition of interleukin-2 dependent T-cell growth in vitro: cell counts by trypan blue exclusion; format: cell-based; details: 10 Units/mL IL-2
Procedure: Inhibition of interleukin-2 (IL-2) dependent T-cell growth in vitro was determined essentially as described by Bowlin et al. [Cell Immunol. 98, 341-50 (1986)]. Cloned IL-2 dependent cytolytic T lymphocytes (CTLL-20), incubated alone or in the presence of (cis)-5'-deoxy-5'-[(4-amino-2-butenyl) methylamino]adenosine (Compound A) at varying concentrations, were stimulated with 10 Units/mL of IL-2 and were grown in culture. After 72 hours, cell counts were determined based on trypan blue exclusion.
Inhibition of interleukin-2 (IL-2) dependent T-cell growth in vitro was determined essentially as described in Example X. Cloned IL-2 dependent cytolytic T lymphocytes (CTLL-20), incubated alone or in the presence of (cis)-5'-deoxy-5'-[(4-amino-2-butenyl) methylamino]adenosine (Compound A) at 100µM, were stimulated with 10 Units/mL of IL-2 and were grown in culture for 1, 2, 3 or 4 days. At the end of incubation, cell counts were determined based on trypan blue exclusion.

[2] = test system: Cloned IL-2 dependent cytolytic T lymphocytes (CTLL-20); assay: Inhibition of interleukin-2 dependent T-cell growth in vitro: DNA synthesis activity by [^3H]-TdR pulse after IL-2 restimulation; format: cell-based; details: [^3H]-TdR final 6 hours
Procedure: The CTLL-20 cells were restimulated with IL-2 (10 units/mL) for 24 hours and were pulsed for the final 6 hours with [^3H]-TdR to measure DNA synthesis activity essentially as described by Bowlin et al. [Cell Immunol. 98, 341-50 (1986)].
The CTLL-20 cells were then restimulated with IL-2 (10 units/mL) for 24 hours and were pulsed for the final 6 hours with [^3H]-TdR to measure DNA synthesis activity essentially as described for Example X.

## CN(C/C=C\CN)C[C@H]1O[C@@H](n2cnc3c(N)ncnc32)[C@H](O)[C@@H]1O (relative stereo) [Compound A, (cis)-5'-deoxy-5'-[(4-amino-2-butenyl)methylamino]adenosine]
[1]; Compound A 1 µM, after 72 hours
  Cell Count Number Recovered: 4.0x10^6
[1]; Compound A 10 µM, after 72 hours
  Cell Count Number Recovered: 2.0x10^6
[1]; Compound A 100 µM, after 72 hours
  Cell Count Number Recovered: 1.0x10^6
[1]; T-lymphocyte, 24 h, time course: incubation time 1 day, Compound A 100 µM, read-out: Cell Count (% Reduction over Control) (converted)
  inhibition at 100 µM: 40%
[1]; T-lymphocyte, 48 h, time course: incubation time 2 days, Compound A 100 µM, read-out: Cell Count (% Reduction over Control) (converted)
  inhibition at 100 µM: 78%
[1]; T-lymphocyte, 72 h, time course: incubation time 3 days, Compound A 100 µM, read-out: Cell Count (% Reduction over Control) (converted)
  inhibition at 100 µM: 85%
[1]; T-lymphocyte, 96 h, time course: incubation time 4 days, Compound A 100 µM, read-out: Cell Count (% Reduction over Control) (converted)
  inhibition at 100 µM: 64%
[1]; T-lymphocyte, Compound A 1 µM, after 72 hours, read-out: Cell Count (% Reduction over Group 1) (converted)
  inhibition at 1 µM: 39%
[1]; T-lymphocyte, Compound A 10 µM, after 72 hours, read-out: Cell Count (% Reduction over Group 1) (converted)
  inhibition at 10 µM: 70%
[1]; T-lymphocyte, Compound A 100 µM, after 72 hours, read-out: Cell Count (% Reduction over Group 1) (converted)
  inhibition at 100 µM: 85%
[1]; time course: incubation time 1 day, Compound A 100 µM
  Cell Count Number Recovered: 0.3x10^6
[1]; time course: incubation time 2 days, Compound A 100 µM
  Cell Count Number Recovered: 0.7x10^6
[1]; time course: incubation time 3 days, Compound A 100 µM
  Cell Count Number Recovered: 1.0x10^6
[1]; time course: incubation time 4 days, Compound A 100 µM
  Cell Count Number Recovered: 1.7x10^6
[2]; Compound A 1 µM, 72 hours culture, restimulated with IL-2 10 units/mL for 24 hours
  DNA Synthesis CPM: 19218 CPM
[2]; Compound A 10 µM, 72 hours culture, restimulated with IL-2 10 units/mL for 24 hours
  DNA Synthesis CPM: 10005 CPM
[2]; Compound A 100 µM, 72 hours culture, restimulated with IL-2 10 units/mL for 24 hours
  DNA Synthesis CPM: 8114 CPM
[2]; T-lymphocyte, 48 h, time course: incubation time 2 days, Compound A 100 µM, then IL-2 restimulation 24 hours, read-out: DNA Synthesis (% Reduction over Control)
  inhibition at 100 µM: 45%
[2]; T-lymphocyte, 72 h, time course: incubation time 3 days, Compound A 100 µM, then IL-2 restimulation 24 hours, read-out: DNA Synthesis (% Reduction over Control)
  inhibition at 100 µM: 76%
[2]; T-lymphocyte, 96 h, time course: incubation time 4 days, Compound A 100 µM, then IL-2 restimulation 24 hours, read-out: DNA Synthesis (% Reduction over Control)
  inhibition at 100 µM: 73%
[2]; T-lymphocyte, Compound A 1 µM, 72 hours culture, restimulated with IL-2 10 units/mL for 24 hours, read-out: DNA Synthesis (% Reduction over Group 1)
  inhibition at 1 µM: 43%
[2]; T-lymphocyte, Compound A 10 µM, 72 hours culture, restimulated with IL-2 10 units/mL for 24 hours, read-out: DNA Synthesis (% Reduction over Group 1)
  inhibition at 10 µM: 70%
[2]; T-lymphocyte, Compound A 100 µM, 72 hours culture, restimulated with IL-2 10 units/mL for 24 hours, read-out: DNA Synthesis (% Reduction over Group 1)
  inhibition at 100 µM: 76%
[2]; T-lymphocyte, time course: incubation time 1 day, Compound A 100 µM, then IL-2 restimulation 24 hours, read-out: DNA Synthesis (% Reduction over Control)
  inhibition at 100 µM: 59%
[2]; time course: incubation time 1 day, Compound A 100 µM, then IL-2 restimulation 24 hours
  DNA Synthesis CPM: 7622 CPM
[2]; time course: incubation time 2 days, Compound A 100 µM, then IL-2 restimulation 24 hours
  DNA Synthesis CPM: 6197 CPM
[2]; time course: incubation time 3 days, Compound A 100 µM, then IL-2 restimulation 24 hours
  DNA Synthesis CPM: 8114 CPM
[2]; time course: incubation time 4 days, Compound A 100 µM, then IL-2 restimulation 24 hours
  DNA Synthesis CPM: 8863 CPM
